In patent US11673889B2, “Substituted imidazo[4,5-c][1,8]naphthyridines as phosphodiesterase inhibitors” (Nanjing Zhengxiang Pharmaceuticals Co., Ltd., priority 2019, dated 2023) one finds IC50 and inhibition data, which are given here for 13 molecules.

The target in one test is T1, ENPP-1, MDA-MB-231 cells (Homo sapiens, UniProt P22413).
T1 sequence (P22413 1-925): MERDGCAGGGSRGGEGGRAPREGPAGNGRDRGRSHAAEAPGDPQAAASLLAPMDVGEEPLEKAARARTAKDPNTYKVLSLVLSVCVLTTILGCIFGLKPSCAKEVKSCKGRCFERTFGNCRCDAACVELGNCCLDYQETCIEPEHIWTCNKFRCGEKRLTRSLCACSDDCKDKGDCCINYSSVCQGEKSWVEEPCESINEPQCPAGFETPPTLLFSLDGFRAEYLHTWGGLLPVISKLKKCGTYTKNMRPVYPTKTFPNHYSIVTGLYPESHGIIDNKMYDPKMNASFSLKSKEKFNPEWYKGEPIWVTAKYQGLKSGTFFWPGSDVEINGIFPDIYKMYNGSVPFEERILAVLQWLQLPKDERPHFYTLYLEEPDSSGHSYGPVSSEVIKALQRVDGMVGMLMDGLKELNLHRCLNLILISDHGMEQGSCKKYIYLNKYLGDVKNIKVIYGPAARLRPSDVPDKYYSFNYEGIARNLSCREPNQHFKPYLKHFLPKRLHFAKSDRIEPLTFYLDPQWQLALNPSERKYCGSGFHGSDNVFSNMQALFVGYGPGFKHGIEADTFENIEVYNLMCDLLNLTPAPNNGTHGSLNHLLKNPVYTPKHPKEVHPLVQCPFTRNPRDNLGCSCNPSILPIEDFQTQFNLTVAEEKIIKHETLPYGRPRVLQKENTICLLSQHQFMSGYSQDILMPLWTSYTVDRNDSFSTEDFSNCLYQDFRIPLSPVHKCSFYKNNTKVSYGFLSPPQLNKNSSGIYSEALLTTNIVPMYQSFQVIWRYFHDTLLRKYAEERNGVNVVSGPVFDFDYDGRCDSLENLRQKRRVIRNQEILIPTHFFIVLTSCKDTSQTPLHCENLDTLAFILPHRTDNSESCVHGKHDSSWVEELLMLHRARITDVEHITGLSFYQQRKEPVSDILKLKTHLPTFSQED
As to the kind of experiment: cell-based. To be noted: for inhibition at 20 µM: MDA-MB-231, read-out: % Inhibition (at 20 μM). The method, then: ENPP-1 were mainly expressed on the surface of cell membrane where it hydrolytes 2′3′-cGAMP to generate 5′-GMP and 5′-AMP. ENPP-1 also has the ability to hydrolyzes artificial phosphoric acid ester TMP-pNP to nucleotide-5′-monophosphate and p-nitrophcnol there, which is a chromogenic product.
8 point of different concentrations of each inhibitor were prepared with the final assay concentrations starting at 20 μM. 3× series dilution by DMEM medium without FBS was applied. Prior to adding inhibitors, 75000 cells per well were incubated at 37° C., 5% CO2 in DMEM for 24 hours. After removing the supernatant medium, 50 μL inhibitor solution was added into each well with cultured cells and incubate at 37° C., 5% CO2 for 60 minutes.
(§1) The IC50 values for percent inhibition versus compound concentration are determined by fitting the inhibition curves using a four-parameter variable slope model in GraphPad Prism® 8.

Test [1] has as its target T2, human soluble ENPP1 (Homo sapiens, UniProt P22413).
T2 construct: 20 ng of human soluble ENPP1
T2 sequence (P22413 103-925 limits assumed): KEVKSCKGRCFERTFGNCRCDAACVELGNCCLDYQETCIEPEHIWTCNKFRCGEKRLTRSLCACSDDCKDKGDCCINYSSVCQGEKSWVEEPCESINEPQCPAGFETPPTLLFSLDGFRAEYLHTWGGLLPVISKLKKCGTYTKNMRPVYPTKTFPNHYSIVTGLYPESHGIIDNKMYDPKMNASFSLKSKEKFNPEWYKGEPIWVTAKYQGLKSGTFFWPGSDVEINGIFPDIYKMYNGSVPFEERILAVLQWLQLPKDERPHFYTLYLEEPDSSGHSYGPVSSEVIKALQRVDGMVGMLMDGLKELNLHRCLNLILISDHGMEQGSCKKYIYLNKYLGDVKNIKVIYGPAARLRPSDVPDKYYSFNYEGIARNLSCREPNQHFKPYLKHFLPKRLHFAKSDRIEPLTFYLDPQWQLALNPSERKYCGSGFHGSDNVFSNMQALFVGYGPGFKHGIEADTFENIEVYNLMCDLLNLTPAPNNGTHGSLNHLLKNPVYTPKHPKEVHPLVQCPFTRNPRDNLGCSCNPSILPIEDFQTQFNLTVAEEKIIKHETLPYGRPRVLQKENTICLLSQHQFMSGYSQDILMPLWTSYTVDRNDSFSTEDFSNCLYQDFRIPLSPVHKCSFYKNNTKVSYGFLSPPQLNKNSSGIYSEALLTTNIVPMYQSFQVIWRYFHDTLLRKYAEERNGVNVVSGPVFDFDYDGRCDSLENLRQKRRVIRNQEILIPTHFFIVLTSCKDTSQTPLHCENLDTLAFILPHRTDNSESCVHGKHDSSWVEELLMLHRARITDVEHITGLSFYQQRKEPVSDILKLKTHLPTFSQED
Briefly: ENPP1 activity assay using p-Nitrophenyl-5′-AMP as a substrate. The class given is biochemical. The procedure: AMP-pNP can be used as substrate of ENPP-1. Its hydrolysis products were nucleotide-5′-monophosphate and p-nitrophcnol, which is also a chromogenic product. The amount of p-nitrophenol product formed is measured using its absorbance at 405 nm, which is directly proportional to enzyme activity.
Load into a well with […] of human soluble ENPP1 in 50 μL and incubate at room temperature with 25 μL inhibitor solution (4× Final Concentration) for 30 mins prior adding 25 μL 3 mM AMP solution (2× Final Concentration) into the well, Incubate at RT for 1 hour. The amounts of released p-nitrophenolate were measured by reading OD value at 405 nm.
(§2) The percent inhibition at each compound is calculated as follows: % inhibition=(ODMAX−ODCOMPOUND)/(ODMAX−ODMIN)*100. (MAX: absence of ENPP1 inhibitors control, MIN: blank control.)
as §1

Test [2] deals with T2, human soluble ENPP1. Briefly: ENPP1 activity assay using p-Nitrophenyl-5′-TMP as a substrate. It is filed as biochemical. The method, then: ENPP1 is a transmembrane glycoprotein that hydrolyzes nucleotides and nucleotide derivatives with the formation of nucleotide-5′-monophosphates. ENPP1 hydrolyzes artificial phosphoric acid ester thymidine 5′monophosphate p-nitrophenyl ester (TMP-pNP) to nucleotide-5′-monophosphate and p-nitrophenol, which is a chromogenic product.
Load into a well with 20 ng of human soluble ENPP1 in 50 μL and incubate at room temperature with 25 μL inhibitor solution (4× Final Concentration) for 30 mins. Then, add 25 μL 2 mM TMP solution (2× Final Concentration) into the well, Incubate at RT for 1 hour.
as §2
The IC50 values for percent inhibition versus compound concentration were determined by fitting the inhibition curves using a four-parameter variable slope model in GraphPad Prism® 8.

[3] abbreviates: substrate TMP-pNP, 20 ng human soluble ENPP1, Tris buffer pH 9.5, read-out: TMP-pNP (IC50).

In the case of `COc1ccc2c(ncc3ncn([C@H](C)c4ccc(S(N)(=O)=O)cc4)c32)n1` [Compound 54, (R)-4-(1-(7-methoxy-1H-imidazo[4,5-c][1,8]naphthyridin-1-yl)ethyl)benzenesulfonamide], the IC50 was 900 nM against ENPP-1, MDA-MB-231 cells; 1.8 nM against human soluble ENPP1 [1]; 0.53 nM against human soluble ENPP1 [2]. In addition, the inhibition at 20 µM at ENPP-1, MDA-MB-231 cells is 82%.

Take `COc1ccc2c(ncc3ncn(Cc4ccc(S(N)(=O)=O)c(OC)c4)c32)n1` [Compound 64, 2-methoxy-4-((7-methoxy-1H-imidazo[4,5-c][1,8]naphthyridin-1-yl)methyl)benzenesulfonamide]: the IC50 against ENPP-1, MDA-MB-231 cells was determined as 4700 nM; against human soluble ENPP1 [1] it was 8.9 nM; on human soluble ENPP1 [2], 2.8 nM. For the same molecule, on ENPP-1, MDA-MB-231 cells, the inhibition at 20 µM worked out at 68%.

Take `COc1ccc2c(ncc3ncn(Cc4ccc(S(N)(=O)=O)c(OC(F)(F)F)c4)c32)n1` [Compound 66, 4-((7-methoxy-1H-imidazo[4,5-c][1,8]naphthyridin-1-yl)methyl)-2-(trifluoromethoxy)benzenesulfonamide]: the half-inhibitory concentration (IC50) stood at 3400 nM against ENPP-1, MDA-MB-231 cells; 13 nM against human soluble ENPP1 [1]; 3 nM against human soluble ENPP1 [2]. Further, at ENPP-1, MDA-MB-231 cells, the inhibition at 20 µM amounted to 71%.

For the molecule `COc1ccc2c(ncc3ncn(Cc4ccc(S(N)(=O)=O)cc4C(F)(F)F)c32)n1` [Compound 67, 4-((7-methoxy-1H-imidazo[4,5-c][1,8]naphthyridin-1-yl)methyl)-3-(trifluoromethyl)benzenesulfonamide], the half-inhibitory concentration (IC50) on ENPP-1, MDA-MB-231 cells was determined as 1300 nM; against human soluble ENPP1 [1], 8.6 nM; on human soluble ENPP1 [2] (setting [3]), 2.3 nM. At ENPP-1, MDA-MB-231 cells, the inhibition at 20 µM came to 80%.

For the molecule `COc1ccc2c(ncc3ncn(Cc4ccc(S(N)(=O)=O)cc4Br)c32)n1` [Compound 68, 3-bromo-4-((7-methoxy-1H-imidazo[4,5-c][1,8]naphthyridin-1-yl)methyl)benzenesulfonamide], the IC50 was determined as 610 nM at ENPP-1, MDA-MB-231 cells; 1.7 nM on human soluble ENPP1 [1]; 0.49 nM at human soluble ENPP1 [2] (setting [3]). Moreover, at ENPP-1, MDA-MB-231 cells, the inhibition at 20 µM is 86%.

`COc1ccc2c(ncc3ncn(Cc4ccc(S(N)(=O)=O)cc4C#N)c32)n1` [Compound 69, 3-cyano-4-((7-methoxy-1H-imidazo[4,5-c][1,8]naphthyridin-1-yl)methyl)benzenesulfonamide]: the IC50 on ENPP-1, MDA-MB-231 cells is 510 nM; at human soluble ENPP1 [1], 2.1 nM; against human soluble ENPP1 [2] it was 0.67 nM. For the same molecule, the inhibition at 20 µM on ENPP-1, MDA-MB-231 cells came out at 79%.

For the molecule `COc1ccc2c(ncc3nc(C4CCOCC4)n(Cc4ccc(S(N)(=O)=O)cn4)c32)n1` [Compound 75, 6-((7-methoxy-2-(tetrahydro-2H-pyran-4-yl)-1H-imidazo[4,5-c][1,8]naphthyridin-1-yl)methyl)pyridine-3-sulfonamide], the 50% inhibitory concentration (IC50) against ENPP-1, MDA-MB-231 cells stood at 310 nM; against human soluble ENPP1 [1] it was 0.68 nM; on human soluble ENPP1 [2] it was 0.24 nM. Besides, the inhibition at 20 µM on ENPP-1, MDA-MB-231 cells worked out at 81%.

On to `COc1ccc2c(ncc3nc(C)n(Cc4ccc(S(=O)(=O)NC(C)=O)c(F)c4)c32)n1` [Compound 76, N-((2-fluoro-4-((7-methoxy-2-methyl-1H-imidazo[4,5-c][1,8]naphthyridin-1-yl)methyl)phenyl)sulfonyl)acetamide], for which the 50% inhibitory concentration (IC50) on ENPP-1, MDA-MB-231 cells was 6900 nM; at human soluble ENPP1 [1] it was 26 nM; at human soluble ENPP1 [2] (setting [3]), 13 nM. The inhibition at 20 µM on ENPP-1, MDA-MB-231 cells came to 51%.

Turning to `COc1ccc2c(ncc3nc(C)n(Cc4ccc(S(=O)(=O)NC(C)=O)cn4)c32)n1` [Compound 77, N-((6-((7-methoxy-2-methyl-1H-imidazo[4,5-c][1,8]naphthyridin-1-yl)methyl)pyridin-3-yl)sulfonyl)acetamide], the half-maximal inhibitory concentration (IC50) is 4800 nM on ENPP-1, MDA-MB-231 cells; 15 nM against human soluble ENPP1 [1]; 8.6 nM against human soluble ENPP1 [2]. Further, the inhibition at 20 µM at ENPP-1, MDA-MB-231 cells was determined as 65%.

Regarding `COCc1nc2cnc3nc(OC)ccc3c2n1Cc1ccc(S(N)(=O)=O)c(F)c1` [Compound 79, 2-fluoro-4-((7-methoxy-2-(methoxymethyl)-1H-imidazo[4,5-c][1,8]naphthyridin-1-yl)methyl)benzenesulfonamide], the IC50 at ENPP-1, MDA-MB-231 cells was found to be 1900 nM; against human soluble ENPP1 [1], 9.2 nM; against human soluble ENPP1 [2] it was 2.1 nM. Further, the inhibition at 20 µM on ENPP-1, MDA-MB-231 cells was determined as 74%.

On to `COc1ccc2c(ncc3nc(CS(C)(=O)=O)n(Cc4ccc(S(N)(=O)=O)c(F)c4)c32)n1` [Compound 81, 2-fluoro-4-((7-methoxy-2-((methylsulfonyl)methyl)-1H-imidazo[4,5-c][1,8]naphthyridin-1-yl)methyl)benzenesulfonamide], for which the IC50 at ENPP-1, MDA-MB-231 cells stood at 4900 nM; on human soluble ENPP1 [1], 23 nM; at human soluble ENPP1 [2], 6.9 nM. For the same molecule, the inhibition at 20 µM at ENPP-1, MDA-MB-231 cells was determined as 63%.

As to `COC(=O)Cc1nc2cnc3nc(OC)ccc3c2n1Cc1ccc(S(N)(=O)=O)c(F)c1` [Compound 83, methyl 2-(1-(3-fluoro-4-sulfamoylbenzyl)-7-methoxy-1H-imidazo[4,5-c][1,8]naphthyridin-2-yl)acetate], the IC50 against ENPP-1, MDA-MB-231 cells is 1200 nM; against human soluble ENPP1 [1] it was 7.7 nM; against human soluble ENPP1 [2], 3.2 nM. The inhibition at 20 µM at ENPP-1, MDA-MB-231 cells came to 83%.

As for `COc1ccc2c(ncc3nc(CC(N)=O)n(Cc4ccc(S(N)(=O)=O)c(F)c4)c32)n1` [Compound 84, 2-(1-(3-fluoro-4-sulfamoylbenzyl)-7-methoxy-1H-imidazo[4,5-c][1,8]naphthyridin-2-yl)acetamide], the IC50 against ENPP-1, MDA-MB-231 cells came to 2500 nM; against human soluble ENPP1 [1], 8.4 nM; at human soluble ENPP1 [2] (setting [3]) it was 3.5 nM. Further, the inhibition at 20 µM on ENPP-1, MDA-MB-231 cells worked out at 76%.

In general, IC50 refers to the concentration that inhibits the measured activity by half. As a reminder, the inhibition is the relative decrease from the control value, in per cent.
